How the values were obtained:
[1] = test system: leaky scanning from cap-proximal AUG in HEK293T cells; assay: Leaky scanning GFP reporter with cap-proximal upstream AUG, western blot; assay type: cell-based, human; conditions: upstream AUG with 16 nt 5′UTR
Text: FIGS. 1A-G: Identification and initial characterization of eIF1-eIF4G1 inhibitors using a high-throughput drug screen (HTS). (1A) A flowchart describing the steps of the recombinant eIF1-eIF4G1 split-RL HTS. (1B) Selection of drugs that inhibit leaky scanning. HEK293T cells were transfected with a short 5′UTR bearing GFP reporter gene described on the top, treated with the indicated HTS hits, and then analyzed by western blot with GFP antibody. US and DS denote upstream and downstream AUG initiation sites, respectively. (1C) A graph showing the change in the ratio of the upstream and downstream AUG following treatment with the indicated drugs. (1D) The chemical structure of the eIF1-eIF4G1 inhibitors, i14G1-10 and i14G1-12. (1E) His-tagged eIF4G1 and His-tagged eIF1 were expressed in BL21 bacteria and purified using nickel NTA beads. Purified His-tagged eIF4G1 and His-tagged eIF1 were incubated with the indicated doses of either i14G1-10 (0-256 μM) or i14G1-12 (0-256 μM) for 5 minutes, followed by fluorescence measurement. For eIF4G1 excitation was at 280 nm and emission was at 350 nm. For eIF1 excitation was at 274 nm and emission was at 304 nm. The data shown represent three independent replicates. IC50 was calculated using Graphpad prism 9. (1F-1G) Western blots of GST pull down. […]
To address the functional significance of the temporal eIF1-eIF4G1 interaction, the inventors set out to develop pharmacological tools against this complex. To this end, the split-Renilla luciferase (RL) complementation assay previously found to be an efficient readout of eIF1 and eIF4G1 interaction in mammalian cells and a highly sensitive and powerful approach for the identification of protein-protein inhibitors was used. […] As knockdown of either eIF1 or eIF4G1 and interference with eIF1-eIF4G1 interaction led to the arrest of leaky scanning from cap-proximal AUG, the selected compounds were analyzed for their effect on initiation from cap-proximal AUG. […]

[2] = test system: 5′UTR length-dependent translation in HEK293T cells; assay: Firefly luciferase reporters with long (354 nt) and short (111 nt) 5′UTR; assay type: cell-based, human; conditions: 5 μM, 16 h
Protocol: FIGS. 5A-D: 5′UTR length-dependent translational control by the eIF1-eIF4G1. […] The asterisks denote a statistically significant difference. **p<0.01, ****p<0.0001. (5B) A scheme of the firefly reporter genes that are driven by long (354 nt) and short (111 nt) 5′ UTR length, is shown on the top. HEK293T cells were transfected with these reporter genes. After 4 h, transfected cells were treated with DMSO, i14G1-10 (5 μM), or i14G1-12 (5 μM) for 16 h and analyzed for firefly luciferase activities. The graph presents the normalized luminescence activity of the long 5′UTR and the short 5′UTR reporters in the indicated treatments. The data are shown as mean±SEM, n=6. The asterisks denote statistically significant difference compared to DMSO, according to Student's t-tests (one-tailed, paired). *p<0.05; **p<0.01. (5C-D) HEK293T cells were treated with DMSO, i14G1-10, and i14G1-12 for 3 h, lysed, and subjected to sucrose gradient sedimentation and fractionation. Fractions were pooled according to polysome profile as free (grey), light (blue), and heavy (yellow) polysomal fractions. cDNA was prepared from each fraction pool and real-time PCR was performed for the indicated TISU genes (5C) or histone genes (5D). The data are shown as mean±SEM, n=3. The asterisks denote statistically significant difference compared to DMSO, according to Student's t-tests (one-tailed, paired), *p<0.05; **p<0.01.
Since both eIF1 and eIF4G1 are important for scanning, the relationship between the translational effects of the inhibitors and the 5′UTR length was examined. […] To investigate further the link between the effect of the drug and 5′UTR length, we used two firefly luciferase reporters we used that differ only in their 5′UTR length: a short 5′UTR with 111 nucleotides and a long 5′UTR with 354 nucleotides. […] These findings confirm the inhibitory effect of these compounds on the scanning promoting activity of the eIF1-eIF4G1 complex.

[3] = test system: parental NIH3T3 cells; assay: Polysome profiling and real-time PCR in parental cells; assay type: cell-based, mouse; conditions: i14G1-10 30 μM, i14G1-12 15 μM, 3 h

Row | Structure (SMILES) | upstream to downstream AUG ratio (leaky scanning) [1] | luciferase reporter expression driven by the longer 5′UTR (354 nucleotides) [2] | luciferase reporter expression driven by the shorter 5′UTR (111 nucleotides) [2] | overall translation, polysome to monosome ratio (P/M) [3] | translation of ISR genes in polysome fractions [3]
1 | Cn1ccnc1S/C(=C/C=C(C#N)C#N)c1ccc(Cl)cc1 [i14G1-12] | selectively changed the upstream to downstream ratio by inhibiting leaky scanning from the cap-proximal AUG | significantly decreased | did not affect | significant reduction in translation efficiency | upregulated
2 | O=C(/C=C/Sc1ccc(C(F)(F)F)cn1)c1ccccc1 [i14G1-10] | selectively changed the upstream to downstream ratio by inhibiting leaky scanning from the cap-proximal AUG | significantly decreased | did not affect | significant reduction in translation efficiency | upregulated

From patent publication US20250090510A1, “eIF4G1-eIF1 INHIBITORS AND USE THEREOF” (YEDA RESEARCH AND DEVELOPMENT CO. LTD., priority 2022, published 2025)
